Measurements as given in ChEMBL document CHEMBL4373693, “Virtual Screening Approach and Investigation of Structure-Activity Relationships To Discover Novel Bacterial Topoisomerase Inhibitors Targeting Gram-Positive and Gram-Negative Pathogens” (J Med Chem, 2019).
pIC50: −log10 of the molar value. Converted amounts (≈) assume the structure as drawn.

What was measured:
DNA gyrase = DNA gyrase (Escherichia coli, UniProt P0AES4+P0AES6); test: Inhibition of Escherichia coli DNA gyrase assessed as reduction in enzyme-mediated supercoiling of relaxed plasmid by fluorescence polarization assay; format: protein-complex assay
[1] = Inhibition of Escherichia coli topoisomerase 4 after 24 hrs by ATPase assay
Escherichia coli [2] = test: Antibacterial activity against Escherichia coli ATCC 25922 by CLSI method; format: functional
Staphylococcus aureus [3] = test: Antibacterial activity against Staphylococcus aureus; format: functional
DNA gyrase subunit A [4] = biological target: DNA gyrase subunit A (Escherichia coli K-12, UniProt P0AES4); test: Inhibition of Escherichia coli ATCC 25922 DNA gyrase A assessed as reduction in enzyme-mediated supercoiling of relaxed pBR322 DNA by ethidium bromide staining based gel electrophoresis method
Sequence of DNA gyrase subunit A (Escherichia coli K-12, UniProt P0AES4) (P0AES4 whole entry): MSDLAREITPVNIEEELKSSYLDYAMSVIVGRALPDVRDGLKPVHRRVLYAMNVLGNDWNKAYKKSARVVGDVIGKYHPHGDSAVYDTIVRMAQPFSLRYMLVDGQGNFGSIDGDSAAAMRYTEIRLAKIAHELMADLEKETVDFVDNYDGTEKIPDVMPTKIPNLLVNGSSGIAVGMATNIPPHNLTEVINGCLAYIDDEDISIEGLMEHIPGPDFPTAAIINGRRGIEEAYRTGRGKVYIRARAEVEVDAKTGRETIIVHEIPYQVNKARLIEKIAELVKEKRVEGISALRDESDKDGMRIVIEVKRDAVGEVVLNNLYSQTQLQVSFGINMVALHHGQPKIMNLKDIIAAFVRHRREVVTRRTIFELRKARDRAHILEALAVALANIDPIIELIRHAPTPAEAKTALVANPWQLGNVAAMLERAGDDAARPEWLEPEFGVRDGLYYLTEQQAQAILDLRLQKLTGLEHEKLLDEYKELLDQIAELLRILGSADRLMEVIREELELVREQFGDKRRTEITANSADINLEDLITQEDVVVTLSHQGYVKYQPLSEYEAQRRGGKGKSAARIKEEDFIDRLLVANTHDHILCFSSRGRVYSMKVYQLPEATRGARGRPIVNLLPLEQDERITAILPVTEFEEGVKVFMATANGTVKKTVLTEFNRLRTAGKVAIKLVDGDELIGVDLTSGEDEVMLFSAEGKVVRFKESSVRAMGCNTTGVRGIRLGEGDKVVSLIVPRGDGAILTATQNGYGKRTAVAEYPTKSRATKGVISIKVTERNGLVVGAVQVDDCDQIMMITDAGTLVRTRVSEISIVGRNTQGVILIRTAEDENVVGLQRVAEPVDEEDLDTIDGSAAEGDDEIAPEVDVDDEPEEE

DNA gyrase subunit A [5] = biological target: DNA gyrase subunit A (Staphylococcus aureus, UniProt P20831); test: Inhibition of Staphylococcus aureus ATCC 29213 DNA gyrase A assessed as reduction in enzyme-mediated supercoiling of relaxed pBR322 DNA by ethidium bromide staining based gel electrophoresis method
Sequence of DNA gyrase subunit A (Staphylococcus aureus, UniProt P20831) (P20831 whole entry): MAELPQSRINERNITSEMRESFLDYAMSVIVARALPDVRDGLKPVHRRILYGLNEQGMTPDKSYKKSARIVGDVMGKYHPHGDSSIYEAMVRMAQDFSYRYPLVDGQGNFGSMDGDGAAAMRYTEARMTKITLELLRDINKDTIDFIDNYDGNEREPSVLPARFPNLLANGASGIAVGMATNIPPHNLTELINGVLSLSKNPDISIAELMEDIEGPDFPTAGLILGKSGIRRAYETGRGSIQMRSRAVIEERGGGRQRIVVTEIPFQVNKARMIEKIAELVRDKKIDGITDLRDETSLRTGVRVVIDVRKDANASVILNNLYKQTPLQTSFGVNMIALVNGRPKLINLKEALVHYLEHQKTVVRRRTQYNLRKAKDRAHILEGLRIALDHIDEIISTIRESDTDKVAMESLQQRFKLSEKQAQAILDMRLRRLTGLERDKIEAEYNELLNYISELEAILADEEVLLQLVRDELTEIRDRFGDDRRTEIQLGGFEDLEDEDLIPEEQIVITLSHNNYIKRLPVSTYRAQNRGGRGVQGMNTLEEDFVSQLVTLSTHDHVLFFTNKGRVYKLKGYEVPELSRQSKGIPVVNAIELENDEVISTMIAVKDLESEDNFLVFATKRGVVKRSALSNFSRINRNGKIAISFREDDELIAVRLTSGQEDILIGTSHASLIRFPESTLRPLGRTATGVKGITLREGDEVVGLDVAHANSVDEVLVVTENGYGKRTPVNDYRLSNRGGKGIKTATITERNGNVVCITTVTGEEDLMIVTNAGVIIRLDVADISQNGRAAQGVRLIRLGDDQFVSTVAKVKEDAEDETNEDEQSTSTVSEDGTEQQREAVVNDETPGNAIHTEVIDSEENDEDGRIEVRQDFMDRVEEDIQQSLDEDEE

[6] = biological target: T1, DNA topoisomerase 4 subunit A (Escherichia coli K-12, UniProt P0AFI2); test: Inhibition of Escherichia coli ATCC 25922 DNA topoisomerase 4 subunit ParC assessed as reduction in decatenation of kinetoplast DNA incubated for 30 mins by ethidium bromide staining based gel electrophoresis method
T1 sequence (P0AFI2 whole entry): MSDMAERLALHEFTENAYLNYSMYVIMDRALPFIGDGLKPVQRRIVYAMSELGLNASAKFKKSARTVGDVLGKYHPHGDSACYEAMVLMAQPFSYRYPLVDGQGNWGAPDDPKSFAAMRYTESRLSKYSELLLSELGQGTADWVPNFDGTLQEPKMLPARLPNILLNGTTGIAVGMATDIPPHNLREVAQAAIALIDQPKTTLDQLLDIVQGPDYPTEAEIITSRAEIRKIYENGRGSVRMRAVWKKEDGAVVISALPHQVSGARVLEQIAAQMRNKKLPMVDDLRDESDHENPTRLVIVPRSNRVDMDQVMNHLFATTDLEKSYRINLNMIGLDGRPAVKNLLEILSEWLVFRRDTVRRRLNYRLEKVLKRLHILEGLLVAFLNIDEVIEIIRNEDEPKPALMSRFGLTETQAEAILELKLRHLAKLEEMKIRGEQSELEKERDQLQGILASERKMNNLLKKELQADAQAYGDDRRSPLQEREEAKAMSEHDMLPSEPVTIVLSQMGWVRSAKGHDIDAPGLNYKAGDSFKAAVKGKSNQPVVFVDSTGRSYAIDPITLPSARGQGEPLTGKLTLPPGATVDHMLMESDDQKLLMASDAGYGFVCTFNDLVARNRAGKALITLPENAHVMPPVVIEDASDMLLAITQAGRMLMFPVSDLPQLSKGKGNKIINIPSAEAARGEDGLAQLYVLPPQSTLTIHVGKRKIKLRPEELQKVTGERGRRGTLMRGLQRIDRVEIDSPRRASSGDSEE

[7] = biological target: DNA topoisomerase 4 subunit A (Staphylococcus aureus, UniProt P0C1U9); test: Inhibition of Staphylococcus aureus ATCC 29213 DNA topoisomerase 4 subunit ParC assessed as reduction in decatenation of kinetoplast DNA incubated for 30 mins by ethidium bromide staining based gel electrophoresis method
Sequence of DNA topoisomerase 4 subunit A (Staphylococcus aureus, UniProt P0C1U9) (P0C1U9 whole entry): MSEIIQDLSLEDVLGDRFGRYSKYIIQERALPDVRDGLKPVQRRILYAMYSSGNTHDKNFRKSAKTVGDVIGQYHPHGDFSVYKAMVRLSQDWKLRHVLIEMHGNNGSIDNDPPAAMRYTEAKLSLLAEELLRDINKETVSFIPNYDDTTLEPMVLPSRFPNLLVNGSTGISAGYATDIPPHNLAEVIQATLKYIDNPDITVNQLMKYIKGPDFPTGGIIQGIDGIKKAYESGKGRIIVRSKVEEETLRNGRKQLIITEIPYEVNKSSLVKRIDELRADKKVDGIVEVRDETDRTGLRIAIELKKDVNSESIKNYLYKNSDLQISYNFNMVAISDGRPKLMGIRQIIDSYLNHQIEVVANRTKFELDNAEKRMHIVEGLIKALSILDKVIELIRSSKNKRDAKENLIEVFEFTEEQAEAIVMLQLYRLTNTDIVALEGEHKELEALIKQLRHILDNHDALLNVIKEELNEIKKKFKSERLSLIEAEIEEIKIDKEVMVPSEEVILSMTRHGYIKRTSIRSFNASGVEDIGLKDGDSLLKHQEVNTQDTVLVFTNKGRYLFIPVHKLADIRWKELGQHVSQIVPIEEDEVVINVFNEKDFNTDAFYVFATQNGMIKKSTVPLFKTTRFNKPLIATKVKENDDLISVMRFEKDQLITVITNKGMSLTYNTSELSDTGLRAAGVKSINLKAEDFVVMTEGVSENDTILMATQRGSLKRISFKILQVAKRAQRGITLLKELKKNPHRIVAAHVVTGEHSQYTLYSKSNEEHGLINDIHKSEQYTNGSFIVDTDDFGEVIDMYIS

Escherichia coli [8] = test: Antibacterial activity against Escherichia coli ATCC 25922 after 16 to 24 hrs by broth microdilution method; format: functional
Staphylococcus aureus [9] = test: Antibacterial activity against Staphylococcus aureus ATCC 29213 after 16 to 24 hrs by broth microdilution method; format: functional
Staphylococcus aureus [10] = test: Antibacterial activity against Staphylococcus aureus BAA-1720 after 16 to 24 hrs by broth microdilution method; format: functional
Pseudomonas aeruginosa = test: Antibacterial activity against Pseudomonas aeruginosa ATCC 27853 after 16 to 24 hrs by CLSI method; format: functional
Escherichia coli [11] = test: Antibacterial activity against Escherichia coli ATCC 25922 in presence of 50% human serum after 16 to 24 hrs by broth microdilution method; format: functional
Staphylococcus aureus [12] = test: Antibacterial activity against Staphylococcus aureus ATCC 29213 in presence of 50% human serum after 16 to 24 hrs by broth microdilution method; format: functional
Staphylococcus aureus [13] = test: Antibacterial activity against Staphylococcus aureus BAA-1720 in presence of 50% human serum after 16 to 24 hrs by broth microdilution method; format: functional
Enterococcus faecium [14] = test: Antibacterial activity against vancomycin resistant and teicoplanin sensitive Enterococcus faecium APV 00420 after 16 to 24 hrs by broth microdilution method; format: functional
Enterococcus faecalis [15] = test: Antibacterial activity against Enterococcus faecalis ATCC 29212 after 16 to 24 hrs by broth microdilution method; format: functional
Enterococcus faecalis [16] = test: Antibacterial activity against vancomycin-sensitive Enterococcus faecalis APV 00404 after 16 to 24 hrs by broth microdilution method; format: functional
Enterococcus faecalis [17] = test: Antibacterial activity against vancomycin-sensitive Enterococcus faecalis APV 00406 after 16 to 24 hrs by broth microdilution method; format: functional
Enterococcus faecalis [18] = test: Antibacterial activity against vancomycin and teicoplanin-resistant Enterococcus faecalis APV 00408 after 16 to 24 hrs by broth microdilution method; format: functional
Enterococcus faecalis [19] = test: Antibacterial activity against vancomycin and teicoplanin-resistant Enterococcus faecalis APV 00409 after 16 to 24 hrs by broth microdilution method; format: functional
Enterococcus faecium [20] = test: Antibacterial activity against vancomycin and teicoplanin-resistant Enterococcus faecium APV 00422 after 16 to 24 hrs by broth microdilution method; format: functional
Enterococcus faecium [21] = test: Antibacterial activity against vancomycin and teicoplanin-resistant Enterococcus faecium APV 00424 after 16 to 24 hrs by broth microdilution method; format: functional
Enterococcus faecium [22] = test: Antibacterial activity against vancomycin resistant and teicoplanin sensitive Enterococcus faecium APV 00553 after 16 to 24 hrs by broth microdilution method; format: functional
Enterococcus faecalis [23] = test: Antibacterial activity against vancomycin-sensitive Enterococcus faecalis APV 00623 after 16 to 24 hrs by broth microdilution method; format: functional
Enterococcus faecium [24] = test: Antibacterial activity against Enterococcus faecium APV 00626 after 16 to 24 hrs by broth microdilution method; format: functional
Enterococcus faecium [25] = test: Antibacterial activity against Enterococcus faecium APV 00627 after 16 to 24 hrs by broth microdilution method; format: functional
Haemophilus influenzae [26] = test: Antibacterial activity against quinolone-sensitive Haemophilus influenzae H128 after 16 to 24 hrs by broth microdilution method; format: functional
Haemophilus influenzae [27] = test: Antibacterial activity against quinolone-sensitive Haemophilus influenzae ATCC 49766 after 16 to 24 hrs by broth microdilution method; format: functional
Neisseria gonorrhoeae = test: Antibacterial activity against Neisseria gonorrhoeae ATCC 19424 after 16 to 24 hrs by broth microdilution method; format: functional
Klebsiella pneumoniae = test: Antibacterial activity against quinolone-sensitive Klebsiella pneumoniae ATCC 700603 after 16 to 24 hrs by broth microdilution method; format: functional
Escherichia coli [28] = test: Selectivity ratio of MIC for Escherichia coli ATCC 25922 in presence of 50% human serum to MIC for Escherichia coli ATCC 25922; format: functional
Staphylococcus aureus [29] = test: Selectivity ratio of MIC for Staphylococcus aureus ATCC 29213 in presence of 50% human serum to MIC for Staphylococcus aureus ATCC 29213; format: functional
Staphylococcus aureus [30] = test: Selectivity ratio of MIC for Staphylococcus aureus BAA-1720 in presence of 50% human serum to MIC for Staphylococcus aureus BAA-1720; format: functional
HepG2 = test: Cytotoxicity against human HepG2 cells after 48 hrs by Alamar blue staining-based fluorometric analysis; format: cell-based; conditions: HepG2, 48 h
HEK293 = test: Cytotoxicity against human HEK293 cells after 48 hrs by Alamar blue staining-based fluorometric analysis; format: cell-based; conditions: HEK293, 48 h
[31] = Selectivity ratio, ratio of IC50 for human HepG2 cells to MIC for Escherichia coli ATCC 25922; format: toxicity; conditions: read-out: Selectivity Index
[32] = Selectivity ratio, ratio of IC50 for human HepG2 cells to MIC for Staphylococcus aureus ATCC 29213; format: toxicity; conditions: read-out: Selectivity Index
[33] = Selectivity ratio, ratio of IC50 for human HEK293 cells to MIC for Escherichia coli ATCC 25922; format: toxicity; conditions: read-out: Selectivity Index
[34] = Selectivity ratio, ratio of IC50 for human HEK293 cells to MIC for Staphylococcus aureus ATCC 29213; format: toxicity; conditions: read-out: Selectivity Index
hERG (KCNH2) = hERG (KCNH2) (Homo sapiens, UniProt Q12809); test: Inhibition of human ERG expressed in CHO cells at 10 uM after 5 mins by automated whole-cell patch clamp relative to control; format: cell-based; conditions: CHO cells that express human ERG
Sequence of hERG (KCNH2) (Q12809 whole entry): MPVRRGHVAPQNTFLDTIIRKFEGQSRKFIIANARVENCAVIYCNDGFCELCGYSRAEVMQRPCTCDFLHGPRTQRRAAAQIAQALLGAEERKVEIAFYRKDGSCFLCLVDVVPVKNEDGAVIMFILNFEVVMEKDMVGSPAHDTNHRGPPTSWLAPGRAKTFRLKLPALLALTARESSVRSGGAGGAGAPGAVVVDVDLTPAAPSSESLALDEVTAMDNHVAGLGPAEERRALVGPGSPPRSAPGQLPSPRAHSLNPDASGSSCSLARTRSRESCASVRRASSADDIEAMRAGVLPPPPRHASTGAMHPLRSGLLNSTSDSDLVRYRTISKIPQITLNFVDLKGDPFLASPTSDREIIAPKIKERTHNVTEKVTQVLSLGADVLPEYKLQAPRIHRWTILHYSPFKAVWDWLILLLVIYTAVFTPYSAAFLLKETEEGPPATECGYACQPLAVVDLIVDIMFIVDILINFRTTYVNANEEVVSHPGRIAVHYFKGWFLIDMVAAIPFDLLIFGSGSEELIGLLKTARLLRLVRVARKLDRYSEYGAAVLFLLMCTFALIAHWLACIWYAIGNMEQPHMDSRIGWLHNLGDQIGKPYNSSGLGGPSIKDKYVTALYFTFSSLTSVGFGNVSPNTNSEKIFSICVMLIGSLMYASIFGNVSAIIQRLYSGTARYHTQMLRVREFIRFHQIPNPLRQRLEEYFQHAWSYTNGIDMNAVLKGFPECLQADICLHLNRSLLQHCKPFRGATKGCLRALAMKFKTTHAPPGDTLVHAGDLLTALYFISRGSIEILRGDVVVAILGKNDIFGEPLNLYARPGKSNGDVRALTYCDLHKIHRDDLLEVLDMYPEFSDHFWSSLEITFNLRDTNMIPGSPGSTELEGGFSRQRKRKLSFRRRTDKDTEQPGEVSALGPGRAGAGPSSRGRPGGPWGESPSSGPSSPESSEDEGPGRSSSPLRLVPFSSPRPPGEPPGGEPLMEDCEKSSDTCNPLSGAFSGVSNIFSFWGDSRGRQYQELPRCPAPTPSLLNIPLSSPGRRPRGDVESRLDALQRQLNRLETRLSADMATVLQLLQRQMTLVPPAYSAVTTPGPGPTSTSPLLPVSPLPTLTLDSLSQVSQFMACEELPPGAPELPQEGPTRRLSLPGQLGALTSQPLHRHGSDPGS

Compound `N[C@@H](Cn1c(=O)cnc2ccc(F)cc21)C1CCC(NCc2ncc3c(n2)OCC(=O)N3)CC1` (stereo partly specified) has a pIC50 (DNA gyrase) of 7.70, a pIC50 [1] of 8.52 and an MIC90 (Escherichia coli [2]) of 2 µg/mL (≈ 4.28 µM). For the same compound, the MIC (Staphylococcus aureus [3]) was 1 µg/mL (≈ 2.14 µM).
Compound `O=c1nc(NCC(O)CN2CCN(c3nccc4ccc(F)cc34)CC2)c2cc(F)ccc2o1` (racemic) has a pIC50 (DNA gyrase subunit A [4]) of 6.40, a pIC50 (DNA gyrase subunit A [5]) of 7.70 and a pIC50 [6] of 7.00. The pIC50 [7] was 7.30, the MIC (Escherichia coli [8]) was 2.14 µM (≈ 1 µg/mL) and the MIC (Staphylococcus aureus [9]) was 0.21 µM (≈ 0.0982 µg/mL). It also gave an MIC (Staphylococcus aureus [10]) of 0.25 µg/mL (≈ 0.535 µM), an MIC (Pseudomonas aeruginosa) of 4 µg/mL (≈ 8.56 µM) and an MIC (Escherichia coli [11]) of over 8 µg/mL. For the same compound, the MIC (Staphylococcus aureus [12]) was over 8 µg/mL, the MIC (Staphylococcus aureus [13]) was over 8 µg/mL and the MIC (Enterococcus faecium [14]) was 1 µg/mL (≈ 2.14 µM). The MIC (Enterococcus faecalis [15]) was 0.5 µg/mL (≈ 1.07 µM), the MIC (Enterococcus faecalis [16]) was 0.25 µg/mL (≈ 0.535 µM) and the MIC (Enterococcus faecalis [17]) was 0.25 µg/mL (≈ 0.535 µM). It also gave an MIC (Enterococcus faecalis [18]) of 0.25 µg/mL (≈ 0.535 µM), an MIC (Enterococcus faecalis [19]) of 0.12 µg/mL (≈ 0.257 µM) and an MIC (Enterococcus faecium [20]) of 0.25 µg/mL (≈ 0.535 µM). For the same compound, the MIC (Enterococcus faecium [21]) was 0.12 µg/mL (≈ 0.257 µM), the MIC (Enterococcus faecium [22]) was 0.5 µg/mL (≈ 1.07 µM) and the MIC (Enterococcus faecalis [23]) was 0.5 µg/mL (≈ 1.07 µM). For the same compound, the MIC (Enterococcus faecium [24]) was 16 µg/mL (≈ 34.2 µM), the MIC (Enterococcus faecium [25]) was 1 µg/mL (≈ 2.14 µM) and the MIC (Haemophilus influenzae [26]) was 0.12 µg/mL (≈ 0.257 µM). The MIC (Haemophilus influenzae [27]) was 0.25 µg/mL (≈ 0.535 µM), the MIC (Neisseria gonorrhoeae) was at most 0.06 µg/mL and the MIC (Klebsiella pneumoniae) was 4 µg/mL (≈ 8.56 µM). The Ratio (Escherichia coli [28]) was “>=32 - 267”, the Ratio (Staphylococcus aureus [29]) was “>=32 - 267” and the Ratio (Staphylococcus aureus [30]) was “>=32 - 267”. For the same compound, the pIC50 (HepG2) was 4.26, the pIC50 (HEK293) was 4.10 and the selectivity ratio [31] was 26. For the same compound, the selectivity ratio [32] was 262, the selectivity ratio [33] was 37 and the selectivity ratio [34] was 381. It also gave an inhibition at 5 min, 10 µM (hERG (KCNH2)) of 67%.
